The CheMixHub drug solubility set

Experiment: xn = mol fraction of the nth substance listed, in the solute-free solvent

COC(=O)Nc1nc2ccccc2[nH]1 + CO + O
solubility (g/100 g solution)
Settings	278.15 K	283.15 K	288.15 K	293.15 K	298.15 K	303.15 K	308.15 K	313.15 K	318.15 K
x2 = 0.05887	0.00186	0.00222	0.00268	0.00321	0.00385	0.00444	0.00519	0.00603	0.00702
x2 = 0.1235	0.00537	0.00636	0.00764	0.00907	0.0107	0.0124	0.0144	0.0166	0.0191
x2 = 0.1941	0.00989	0.0117	0.0141	0.0168	0.0198	0.0228	0.0265	0.0306	0.0353
x2 = 0.2725	0.0136	0.0162	0.0196	0.0233	0.0275	0.032	0.0372	0.0432	0.0499
x2 = 0.36	0.0154	0.0185	0.0226	0.0279	0.0321	0.0378	0.0443	0.0516	0.06
x2 = 0.4579	0.0159	0.0192	0.0239	0.0289	0.0343	0.0409	0.0482	0.0567	0.0663
x2 = 0.5666	0.016	0.0196	0.0245	0.03	0.0357	0.0432	0.0513	0.0609	0.0717
x2 = 0.6924	0.0163	0.0203	0.0258	0.0316	0.0381	0.0463	0.0557	0.0664	0.0791
x2 = 0.8362	0.0175	0.0219	0.0281	0.0347	0.0418	0.0516	0.0624	0.075	0.0897

Cc1ccc(-c2cc(C(F)(F)F)nn2-c2ccc(S(N)(=O)=O)cc2)cc1 + CN1CCCC1=O + CCCO
solubility (g/100 g solution)
Settings	x2 = 0.06311	x2 = 0.1316	x2 = 0.2062	x2 = 0.2878	x2 = 0.3774	x2 = 0.4763	x2 = 0.5858	x2 = 0.708	x2 = 0.8451
293.15 K	5.07	5.58	6.56	6.91	7.25	9.83	11.2	13.6	16.9
298.15 K	5.96	6.26	6.96	7.72	8.23	10.3	12.2	14.6	18
303.15 K	6.68	7.1	7.85	8.74	9.16	11.9	13.4	16.3	19.6
308.15 K	7.49	8.17	9.06	9.84	10	12.7	14.5	17.3	21.1
313.15 K	8.6	9.28	9.59	10.3	10.6	13.5	15.8	19	22.6

c1ccc2c(c1)CCc1ccccc1N2 + CCO + O
solubility (g/100 g solution)
Settings	283.15 K	288.15 K	293.15 K	298.15 K	303.15 K	308.15 K	313.15 K	318.15 K	323.15 K	328.15 K
x2 = 0.04179	0.0221	0.0315	0.0433	0.0609	0.0803	0.109	0.143	0.188	0.245	0.315
x2 = 0.08913	0.114	0.158	0.211	0.288	0.371	0.489	0.626	0.801	1.02	1.28
x2 = 0.1443	0.214	0.292	0.388	0.52	0.666	0.866	1.1	1.39	1.75	2.17
x2 = 0.207	0.24	0.326	0.432	0.576	0.738	0.954	1.21	1.53	1.91	2.38
x2 = 0.2814	0.229	0.311	0.414	0.548	0.706	0.909	1.15	1.46	1.82	2.27
x2 = 0.3697	0.231	0.313	0.417	0.55	0.71	0.909	1.15	1.46	1.82	2.26
x2 = 0.4785	0.269	0.363	0.465	0.612	0.779	1	1.28	1.62	2.02	2.49
x2 = 0.6105	0.316	0.423	0.561	0.728	0.94	1.19	1.5	1.89	2.33	2.88
x2 = 0.7769	0.374	0.498	0.659	0.848	1.09	1.37	1.73	2.16	2.66	3.28
